Like-named read-outs stand apart in the source and are kept apart here.
Assays:
PfNT1 = target: T1, PfNT1 (Plasmodium falciparum, UniProt Q8IDM6); assay: cell-based; type: cell-based; conditions: for activity at 5000 µM: total [3H]CQ transport
T1 construct: expressed in transfected cells; host or cells: Xenopus laevis oocytes (stage V-VI), cRNA-injected
Procedure, shortened: (§1)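 Oocytes (ten per treatment, ≥4 independent frogs/days) were preloaded by injecting VF-6 in 25 nL ND96 at pH 5.0, 5.5, 6.0 or 7.0, or Na^+-free choline buffer, then uptake run 1.5 h, 27.5 °C, ND96 pH 5.5 by default. Internal concentrations assumed ~400 nL oocyte volume.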

PfCRT^Dd2 [1] = target: T2, PfCRT^Dd2 (Plasmodium falciparum, UniProt Q9N623, A220S/I356T/K76T/M74I/N326S/N75E/Q271E/R371I); assay: cell-based; type: cell-based; conditions: […]; for activity at 45000 µM: [test solute]i = 45 mM (30 mM for some solutes due to solubility)
T2 sequence (Q9N623 whole entry A220S/I356T/K76T/M74I/N326S/N75E/Q271E/R371I): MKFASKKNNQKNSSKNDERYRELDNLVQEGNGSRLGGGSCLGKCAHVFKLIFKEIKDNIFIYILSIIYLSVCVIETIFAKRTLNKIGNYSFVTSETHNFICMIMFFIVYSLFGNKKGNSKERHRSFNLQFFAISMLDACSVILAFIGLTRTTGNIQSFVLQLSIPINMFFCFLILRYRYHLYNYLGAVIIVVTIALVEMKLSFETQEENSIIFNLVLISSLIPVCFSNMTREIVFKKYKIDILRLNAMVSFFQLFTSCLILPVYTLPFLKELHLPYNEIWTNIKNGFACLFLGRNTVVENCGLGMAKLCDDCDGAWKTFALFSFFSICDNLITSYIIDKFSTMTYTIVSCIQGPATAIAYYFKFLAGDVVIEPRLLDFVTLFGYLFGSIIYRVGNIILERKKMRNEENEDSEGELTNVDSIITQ
Procedure, shortened: as §1

PfCRT^3D7 [2] = target: T3, PfCRT^3D7 (Plasmodium falciparum, UniProt Q8IBZ9); assay: cell-based; type: cell-based
T3 sequence (Q8IBZ9 59-398): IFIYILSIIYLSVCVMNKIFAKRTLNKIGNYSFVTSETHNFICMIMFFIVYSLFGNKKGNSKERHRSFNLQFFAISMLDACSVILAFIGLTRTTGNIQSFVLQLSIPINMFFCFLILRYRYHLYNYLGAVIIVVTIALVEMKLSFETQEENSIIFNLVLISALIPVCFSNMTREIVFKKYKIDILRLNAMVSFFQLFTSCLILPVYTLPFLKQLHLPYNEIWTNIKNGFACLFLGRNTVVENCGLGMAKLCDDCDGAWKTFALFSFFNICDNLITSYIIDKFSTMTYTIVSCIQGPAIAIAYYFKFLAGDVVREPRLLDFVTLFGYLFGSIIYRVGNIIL
Procedure, shortened: as §1

PfCRT^Ecu1110 [3] = target: T4, PfCRT^Ecu1110 (Plasmodium falciparum, UniProt Q9N623, A220S/I356L/K76T/N326D); assay: cell-based; type: cell-based; conditions: […]
T4 sequence (Q9N623 whole entry A220S/I356L/K76T/N326D): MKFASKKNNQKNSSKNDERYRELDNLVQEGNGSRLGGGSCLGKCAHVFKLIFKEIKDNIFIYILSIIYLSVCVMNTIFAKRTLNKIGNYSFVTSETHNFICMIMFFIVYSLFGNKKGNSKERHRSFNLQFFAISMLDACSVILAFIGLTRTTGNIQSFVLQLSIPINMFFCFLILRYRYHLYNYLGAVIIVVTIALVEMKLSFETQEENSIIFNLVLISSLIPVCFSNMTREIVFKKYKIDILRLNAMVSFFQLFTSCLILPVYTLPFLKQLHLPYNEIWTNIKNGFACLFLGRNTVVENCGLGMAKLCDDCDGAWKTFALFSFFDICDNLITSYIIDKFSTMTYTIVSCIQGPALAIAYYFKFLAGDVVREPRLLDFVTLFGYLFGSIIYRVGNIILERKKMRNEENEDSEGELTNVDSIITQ
Procedure, shortened: as §1

PfCRT^3D7 [4] = target: T3, PfCRT^3D7; assay: cell-based; type: cell-based; conditions: total [3H]CQ transport; for inhibition at 500 µM: [test solute] = 0.5 mM; for inhibition at 1000 µM: [test solute] = 1 mM; for inhibition at 2000 µM: [test solute] = 2 mM
Procedure, shortened: (§2)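 ND96, pH 5.5, 1.5 h, 27.5 °C; uptake direction acidic outside → oocyte cytosol, mimicking efflux from digestive vacuole. Ice-cold wash stop, 10% SDS lysis, scintillation counting. Ten oocytes/treatment, ≥4 independent experiments.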

PfCRT [5] = assay: Test of solutes as potential co-substrates for influx of VF-6 via PfCRT into the oocyte; type: cell-based, Plasmodium falciparum; design: key: X: Compounds that have been tested as potential co-substrates but are not required for influx of VF-6 via PfCRT into the oocyte; conditions: X = tested
non-expressing oocytes [6] = assay: cells; type: cell-based, Xenopus laevis; conditions: Xenopus laevis, total [3H]CQ transport; for inhibition at 500 µM: [test solute] = 0.5 mM; for inhibition at 1000 µM: [test solute] = 1 mM; for inhibition at 2000 µM: [test solute] = 2 mM
Procedure, shortened: as §2

PfCRT [7] = assay: Potential co-substrates tested for influx of VF-6 via PfCRT into the oocyte; type: cell-based, Plasmodium falciparum; design: key: X: Compounds that have been tested as potential co-substrates but are not required for influx of VF-6 via PfCRT into the oocyte
non-expressing oocytes [8] = type: cell-based, Xenopus laevis; conditions: total [3H]CQ transport; for Uptake of [3H]CQ (% non-expressing oocyte control), trans-stimulation: non-expressing oocytes, normalised to the oocyte type control; for Uptake of [3H]CQ (% PfCRTDd2 control), trans-stimulation, non-expressing oocytes: mean ± SEM, SEM
Procedure, shortened: as §1

PfCRT^Dd2 [9] = target: T2, PfCRT^Dd2; assay: [3H]CQ uptake into Xenopus oocytes, cis-inhibition by unlabelled solute; type: cell-based
Procedure, shortened: as §2

PfCRT^Ecu1110 [10] = target: T4, PfCRT^Ecu1110; assay: as above; type: cell-based
Procedure, shortened: as §2

[11] = PfCRT3D7 oocytes, normalised to the oocyte type control, read-out: Uptake of [3H]CQ (% PfCRT3D7 control), cis-inhibition
[12] = mean ± SEM, SEM, read-out: Uptake of [3H]CQ (% PfCRTDd2 control), cis-inhibition, PfCRT3D7
[13] = Oocyte, mean ± SEM, SEM, read-out: Uptake of [3H]CQ (% PfCRTDd2 control), cis-inhibition, non-expressing oocytes
[14] = non-expressing oocytes, normalised to the oocyte type control, read-out: Uptake of [3H]CQ (% non-expressing oocyte control), cis-inhibition
[15] = read-out: PfCRT-mediated [3H]CQ transport, cis-inhibition (% PfCRTDd2 control)
[16] = read-out: Uptake of [3H]CQ (% PfCRTDd2 control), cis-inhibition, PfCRTDd2, SEM
[17] = read-out: PfCRT-mediated [3H]CQ transport, cis-inhibition (% PfCRTEcu1110 control)
[18] = read-out: Uptake of [3H]CQ (% PfCRTDd2 control), cis-inhibition, PfCRTEcu1110, SEM
[19] = read-out: Uptake of [3H]CQ (% PfCRTEcu1110 control), cis-inhibition
[20] = read-out: [3H]CQ transport (% PfCRTEcu1110 control), cis-inhibition, PfCRTEcu1110, SEM

T1 sequence (Q8IDM6 whole entry): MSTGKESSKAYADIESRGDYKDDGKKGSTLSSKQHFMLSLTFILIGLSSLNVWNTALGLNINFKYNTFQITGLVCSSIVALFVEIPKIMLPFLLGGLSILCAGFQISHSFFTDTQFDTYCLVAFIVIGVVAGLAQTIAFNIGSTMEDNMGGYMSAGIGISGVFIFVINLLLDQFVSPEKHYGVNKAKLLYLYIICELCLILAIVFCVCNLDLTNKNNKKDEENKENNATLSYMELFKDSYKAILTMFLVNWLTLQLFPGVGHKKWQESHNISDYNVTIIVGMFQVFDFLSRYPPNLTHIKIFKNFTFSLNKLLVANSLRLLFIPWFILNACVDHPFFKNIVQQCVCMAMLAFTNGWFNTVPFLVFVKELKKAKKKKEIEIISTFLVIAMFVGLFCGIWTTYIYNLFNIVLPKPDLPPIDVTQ

CC[C@H](C)[C@H](N)C(=O)O [L-isoleucine]
activity at 5000 µM (PfNT1; PfNT1 oocytes, [test solute]i = 5 mM, normalised to the oocyte type control, read-out: Uptake of [3H]CQ (% PfNT1 control), trans-stimulation): 98 ± 2.2% | activity at 45000 µM (PfNT1; SEM, read-out: Uptake of [3H]CQ (% PfCRTDd2 control), trans-stimulation, PfNT1): 2.2 ± 0.03% | activity at 45000 µM (PfNT1; read-out: Uptake of [3H]CQ (% PfNT1 control), trans-stimulation): 100 ± 2.5% | activity at 5000 µM (PfNT1; [test solute]i = 5 mM (intracellular), mean ± SEM, SEM, read-out: Uptake of [3H]CQ (% PfCRTDd2 control), trans-stimulation, PfNT1): 3.1 ± 0.02% | activity at 5000 µM (PfCRT^Dd2 [1]; pH 5.5, read-out: PfCRT-mediated [3H]CQ transport, trans-stimulation (% PfCRTDd2 control), [test solute]i = 5 mM (intracellular), PfCRTDd2 oocytes, normalised to oocyte type control): 94 ± 5.1% | activity at 5000 µM (PfCRT^Dd2 [1]; pH 5.5, read-out: Uptake of [3H]CQ (% PfCRTDd2 control), trans-stimulation, PfCRTDd2, total [3H]CQ transport, [test solute]i = 5 mM (intracellular), mean ± SEM, SEM): 96 ± 4.4% | activity at 5000 µM (PfCRT^Dd2 [1]; pH 5.5, read-out: Uptake of [3H]CQ (% PfCRTDd2 control), trans-stimulation, PfCRTDd2 oocytes, [test solute]i = 5 mM, total [3H]CQ transport, normalised to the oocyte type control): 96 ± 4.4% | activity at 45000 µM (PfCRT^Dd2 [1]; pH 5.5, read-out: Uptake of [3H]CQ (% PfCRTDd2 control), trans-stimulation, PfCRTDd2 oocytes, total [3H]CQ transport, normalised to the oocyte type control): 100 ± 2.2% | activity at 5000 µM (PfCRT^Dd2 [1]; pH 5.5, read-out: [3H]CQ transport (% PfCRTDd2 control), trans-stimulation, PfCRTDd2, trans-stimulation, [test solute]i = 5 mM (injected), PfCRT-mediated component (background subtracted), mean ± SEM, SEM): 94 ± 5.1% | activity at 45000 µM (PfCRT^Dd2 [1]; pH 5.5, read-out: [3H]CQ transport (% PfCRTDd2 control), trans-stimulation, PfCRTDd2, trans-stimulation, PfCRT-mediated component (background subtracted), mean ± SEM, SEM): 98 ± 3.6% | activity at 5000 µM (PfCRT^3D7 [2]; PfCRT3D7 oocytes, [test solute]i = 5 mM, total [3H]CQ transport, normalised to the oocyte type control, read-out: Uptake of [3H]CQ (% PfCRT3D7 control), trans-stimulation): 100 ± 3.6% | [3H]CQ transport (% PfCRT3D7 control), trans-stimulation, PfCRT3D7 (PfCRT^3D7 [2]; SEM): 0.3 ± 0.02 % PfCRT3D7 control | activity at 5000 µM (PfCRT^3D7 [2]; [test solute]i = 5 mM (intracellular), PfCRT3D7 oocytes, normalised to oocyte type control, read-out: PfCRT-mediated [3H]CQ transport, trans-stimulation (% PfCRT3D7 control)): 98 ± 4.1% | activity at 45000 µM (PfCRT^3D7 [2]; SEM, read-out: Uptake of [3H]CQ (% PfCRTDd2 control), trans-stimulation, PfCRT3D7): 3.3 ± 0.01% | activity at 45000 µM (PfCRT^3D7 [2]; read-out: PfCRT-mediated [3H]CQ transport, trans-stimulation (% PfCRT3D7 control)): 96 ± 3.5% | activity at 45000 µM (PfCRT^3D7 [2]; read-out: Uptake of [3H]CQ (% PfCRT3D7 control), trans-stimulation): 98 ± 4.3% | activity at 5000 µM (PfCRT^3D7 [2]; total [3H]CQ transport, [test solute]i = 5 mM (intracellular), mean ± SEM, SEM, read-out: Uptake of [3H]CQ (% PfCRTDd2 control), trans-stimulation, PfCRT3D7): 3.3 ± 0.02% | activity at 5000 µM (PfCRT^Ecu1110 [3]; pH 5.5, read-out: PfCRT-mediated [3H]CQ transport, trans-stimulation (% PfCRTEcu1110 control), [test solute]i = 5 mM (intracellular), PfCRTEcu1110 oocytes, normalised to oocyte type control): 97 ± 2.1% | activity at 5000 µM (PfCRT^Ecu1110 [3]; pH 5.5, read-out: Uptake of [3H]CQ (% PfCRTEcu1110 control), trans-stimulation, PfCRTEcu1110 oocytes, [test solute]i = 5 mM, total [3H]CQ transport, normalised to the oocyte type control): 99 ± 3.5% | activity at 45000 µM (PfCRT^Ecu1110 [3]; pH 5.5, read-out: Uptake of [3H]CQ (% PfCRTEcu1110 control), trans-stimulation, PfCRTEcu1110 oocytes, [test solute]i = 45 mM (30 mM for some solutes due to solubility), total [3H]CQ transport, normalised to the oocyte type control): 99 ± 3.2% | activity at 5000 µM (PfCRT^Ecu1110 [3]; read-out: Uptake of [3H]CQ (% PfCRTDd2 control), trans-stimulation, PfCRTEcu1110, total [3H]CQ transport, [test solute]i = 5 mM (intracellular), mean ± SEM, SEM): 35 ± 1.5% | activity at 45000 µM (PfCRT^Ecu1110 [3]; read-out: Uptake of [3H]CQ (% PfCRTDd2 control), trans-stimulation, PfCRTEcu1110, total [3H]CQ transport, [test solute]i = 45 mM (intracellular; 30 mM for some solutes due to solubility), mean ± SEM, SEM): 35 ± 1.1% | inhibition at 500 µM (PfCRT^3D7 [4]; [11]): 99 ± 4.7% | inhibition at 1000 µM (PfCRT^3D7 [4]; [11]): 98 ± 5.7% | inhibition at 2000 µM (PfCRT^3D7 [4]; [11]): 102 ± 4.7% | inhibition at 500 µM (PfCRT^3D7 [4]; [12]): 3.1 ± 0.07% | inhibition at 1000 µM (PfCRT^3D7 [4]; [12]): 2.8 ± 0.04% | inhibition at 2000 µM (PfCRT^3D7 [4]; [12]): 2.8 ± 0.02% | Tested as potential co-substrate but not required for influx of VF-6 via PfCRT into the oocyte (PfCRT [5]): X | inhibition at 500 µM (non-expressing oocytes [6]; [13]): 2.7 ± 0.08% | inhibition at 1000 µM (non-expressing oocytes [6]; [13]): 3.3 ± 0.03% | inhibition at 2000 µM (non-expressing oocytes [6]; [13]): 2.4 ± 0.07% | inhibition at 500 µM (non-expressing oocytes [6]; [14]): 94 ± 7.5% | inhibition at 1000 µM (non-expressing oocytes [6]; [14]): 100 ± 4.5% | inhibition at 2000 µM (non-expressing oocytes [6]; [14]): 101 ± 3.2% | Tested as potential co-substrate but not required for influx of VF-6 via PfCRT into the oocyte (PfCRT [7]): X | Uptake of [3H]CQ (% non-expressing oocyte control), trans-stimulation (non-expressing oocytes [8]; [test solute]i = 5 mM): 97 ± 1.3 % non-expressing oocyte control | Uptake of [3H]CQ (% non-expressing oocyte control), trans-stimulation (non-expressing oocytes [8]; [test solute]i = 45 mM (30 mM for some solutes due to solubility)): 100 ± 2.7 % non-expressing oocyte control | Uptake of [3H]CQ (% PfCRTDd2 control), trans-stimulation, non-expressing oocytes (non-expressing oocytes [8]; [test solute]i = 5 mM (intracellular)): 3.2 ± 0.06 % PfCRTDd2 control | Uptake of [3H]CQ (% PfCRTDd2 control), trans-stimulation, non-expressing oocytes (non-expressing oocytes [8]; [test solute]i = 45 mM (intracellular; 30 mM for some solutes due to solubility)): 2.5 ± 0.05 % PfCRTDd2 control | inhibition at 500 µM (PfCRT^Dd2 [9]; [15]): 95 ± 5.1% | inhibition at 2000 µM (PfCRT^Dd2 [9]; [15]): 96 ± 3.7% | inhibition at 500 µM (PfCRT^Dd2 [9]; [16]): 97 ± 4.9% | inhibition at 1000 µM (PfCRT^Dd2 [9]; [16]): 100 ± 6.5% | inhibition at 2000 µM (PfCRT^Dd2 [9]; [16]): 98 ± 6.2% | inhibition at 500 µM (PfCRT^Ecu1110 [10]; [17]): 93 ± 5.9% | inhibition at 1000 µM (PfCRT^Ecu1110 [10]; [17]): 98 ± 4.1% | inhibition at 2000 µM (PfCRT^Ecu1110 [10]; [17]): 98 ± 5.2% | inhibition at 500 µM (PfCRT^Ecu1110 [10]; [18]): 31 ± 1.7% | inhibition at 1000 µM (PfCRT^Ecu1110 [10]; [18]): 33 ± 1.8% | inhibition at 2000 µM (PfCRT^Ecu1110 [10]; [18]): 33 ± 1.5% | inhibition at 500 µM (PfCRT^Ecu1110 [10]; [19]): 96 ± 6.9% | inhibition at 1000 µM (PfCRT^Ecu1110 [10]; [19]): 100 ± 6.9% | inhibition at 2000 µM (PfCRT^Ecu1110 [10]; [19]): 101 ± 9.5% | inhibition at 500 µM (PfCRT^Ecu1110 [10]; [20]): 28 ± 0.3% | inhibition at 1000 µM (PfCRT^Ecu1110 [10]; [20]): 30 ± 0.6% | inhibition at 2000 µM (PfCRT^Ecu1110 [10]; [20]): 30 ± 0.5%

— publication PMC7413254 (Nature Communications, 2020)
